The target in assay [1] is Cyclin-dependent kinase 2 (Homo sapiens, UniProt P24941). The experiment in a line: inhibition of human CDK2/cyclin A – biochemical, cherry-picked samples, selectivity assay for Dyrk1A inhibitor project, dose response (AID 602127).
Assay [2] concerns the target Dual specificity protein kinase CLK1 (Homo sapiens, UniProt P49759). The experiment in a line: inhibition of human CLK1 activity – biochemical, cherry-picked samples, selectivity assay for Dyrk1A inhibitor project, dose response (AID 588811).
The target in a further assay is Paired box protein Pax-8 (Homo sapiens, UniProt Q06710). Nature of the assay: PAX8 transcriptional activity inhibition in RMG-I – RMG-I cells, luciferase, cherry-pick, dose response (AID 687027).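 Note: luciferase reporter driven by Pax8 target thyroperoxidase promoter measured by SteadyGlo luminescence.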 It counts as functional, cell-based.
For assay [3], the target named is T1, DNA repair protein RAD52 homolog (Homo sapiens, UniProt P43351).
T1 sequence (P43351 whole entry): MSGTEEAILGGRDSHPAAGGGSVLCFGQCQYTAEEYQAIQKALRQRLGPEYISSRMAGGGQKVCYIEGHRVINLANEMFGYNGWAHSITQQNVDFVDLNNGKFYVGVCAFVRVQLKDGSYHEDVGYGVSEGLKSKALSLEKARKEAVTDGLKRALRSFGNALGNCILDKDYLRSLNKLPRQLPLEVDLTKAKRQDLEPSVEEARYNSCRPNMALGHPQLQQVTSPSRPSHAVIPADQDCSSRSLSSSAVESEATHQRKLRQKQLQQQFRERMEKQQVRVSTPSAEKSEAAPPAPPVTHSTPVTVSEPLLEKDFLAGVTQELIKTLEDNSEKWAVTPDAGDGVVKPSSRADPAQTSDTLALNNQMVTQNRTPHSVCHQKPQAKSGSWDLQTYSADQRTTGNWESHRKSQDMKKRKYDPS
The assay is classed as functional, biochemical.

Assay [4] concerns the target T2, Rac GTPase-activating protein 1 (Homo sapiens, UniProt Q9H0H5).
T2 sequence (Q9H0H5 whole entry): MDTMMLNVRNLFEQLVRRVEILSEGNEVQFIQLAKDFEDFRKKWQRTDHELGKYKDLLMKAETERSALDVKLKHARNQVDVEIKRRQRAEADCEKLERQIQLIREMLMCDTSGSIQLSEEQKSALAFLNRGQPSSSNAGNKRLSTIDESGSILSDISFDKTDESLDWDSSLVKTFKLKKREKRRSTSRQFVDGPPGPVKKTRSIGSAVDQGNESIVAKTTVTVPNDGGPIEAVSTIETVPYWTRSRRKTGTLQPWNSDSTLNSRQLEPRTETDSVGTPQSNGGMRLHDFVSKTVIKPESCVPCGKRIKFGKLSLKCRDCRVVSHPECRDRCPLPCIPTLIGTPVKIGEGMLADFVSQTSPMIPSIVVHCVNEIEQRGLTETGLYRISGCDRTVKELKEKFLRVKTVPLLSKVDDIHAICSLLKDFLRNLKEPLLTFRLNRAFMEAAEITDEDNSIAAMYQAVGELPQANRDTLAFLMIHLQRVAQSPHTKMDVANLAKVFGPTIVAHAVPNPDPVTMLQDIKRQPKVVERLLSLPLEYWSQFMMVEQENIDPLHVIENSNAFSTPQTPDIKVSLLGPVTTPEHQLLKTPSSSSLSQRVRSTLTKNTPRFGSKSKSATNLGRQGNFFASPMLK
Nature of the assay: blockers of MgcRacGAP-driven Rac1 GTP hydrolysis – biochemical, ADP Hunter fluorescence, primary and confirmatory, confirmation (AID 624330). The assay is classed as functional.

In assay [5] the test system is BJ. Nature of the assay: growth inhibition of engineered Ras-driven BJ cells – cell-based, alamar blue fluorescence, cherrypicked samples, dose response (AID 2631).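 Note: confirmatory dose-response assay in RAS-dependent BJ fibroblasts engineered with TERT, LT and ST, with cytotoxicity read by fluorescence.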 The assay is classed as functional. The settings on record: Homo sapiens. For orientation: Resazurin is reduced to fluorescent resorufin, in cell work by metabolically active cells.
Assay [6] is described as follows: DRD fibroblast viability loss – cell-based, non-viral oncogenic, luminescence, dose response (AID 1934). The settings on record: Homo sapiens. The assay is classed as functional.
Assay [7] in a line: viability loss in HeLa cells – cytotoxicity control for MgcRacGAP inhibitor project, dose response (AID 624300). The assay is classed as functional.
For assay [8], the system named is BJ. The experiment in a line: BJ-TERT fibroblast viability loss – cell-based, RAS-independent, luminescence, dose response (AID 1933). The assay is classed as functional, Homo sapiens. To be noted: Homo sapiens, BJ.
A short description of assay [9]: HEK-293T viability loss after treatment – luminescence, T-cell screen hits, cytotoxicity control for TCR NF-kB inhibitor project, dose response (AID 489026).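 Note: cells exposed to compound about 14 hours before the viability readout.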 The assay is classed as functional, cell-based.
The nature of assay [10]: general cell-killing toxicity readout – plate reader, dry powder samples, cytotoxicity control for PAX8 inhibitor project, dose response (AID 743021). The assay is classed as functional, cell-based.
Assay [11] relates to BJ. The experiment in a line: cells. The assay is classed as functional, cell-based, Homo sapiens. The settings on record: Homo sapiens, BJ.
Assay [12] has as its target T3, Short transient receptor potential channel 4 (Mus musculus, UniProt Q9QUQ5).
T3 sequence (Q9QUQ5 whole entry): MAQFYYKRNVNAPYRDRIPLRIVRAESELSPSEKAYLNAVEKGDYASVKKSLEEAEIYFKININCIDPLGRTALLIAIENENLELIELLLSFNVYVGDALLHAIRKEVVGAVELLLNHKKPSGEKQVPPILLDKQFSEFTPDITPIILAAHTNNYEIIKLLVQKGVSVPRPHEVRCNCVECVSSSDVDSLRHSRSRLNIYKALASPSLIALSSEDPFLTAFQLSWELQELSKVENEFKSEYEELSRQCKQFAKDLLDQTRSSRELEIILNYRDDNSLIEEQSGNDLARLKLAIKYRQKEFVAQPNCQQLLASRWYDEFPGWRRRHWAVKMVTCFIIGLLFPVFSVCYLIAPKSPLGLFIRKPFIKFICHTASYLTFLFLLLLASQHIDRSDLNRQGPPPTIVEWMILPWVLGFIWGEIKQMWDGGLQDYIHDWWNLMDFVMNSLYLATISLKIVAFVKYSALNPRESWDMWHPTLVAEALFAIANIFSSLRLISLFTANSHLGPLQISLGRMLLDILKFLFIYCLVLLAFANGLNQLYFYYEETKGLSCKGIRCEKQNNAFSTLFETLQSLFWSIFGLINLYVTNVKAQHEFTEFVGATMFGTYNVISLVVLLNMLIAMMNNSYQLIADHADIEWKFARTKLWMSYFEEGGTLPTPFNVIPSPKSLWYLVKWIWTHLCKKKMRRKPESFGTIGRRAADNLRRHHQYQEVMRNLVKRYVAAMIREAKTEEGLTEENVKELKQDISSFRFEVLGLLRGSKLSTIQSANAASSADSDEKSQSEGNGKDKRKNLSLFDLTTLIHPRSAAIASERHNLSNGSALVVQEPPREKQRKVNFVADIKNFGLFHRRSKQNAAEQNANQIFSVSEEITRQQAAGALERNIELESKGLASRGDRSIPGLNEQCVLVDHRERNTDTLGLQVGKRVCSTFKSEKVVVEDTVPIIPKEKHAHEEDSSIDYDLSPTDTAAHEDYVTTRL
The experiment in a line: block of DAMGO-driven TRPC4 calcium entry – cell-based, HEK293 TRPC4/mu-opioid, Fluo-4 calcium, dose response (AID 434942).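 Note: potency of inhibitors blocking the TRPC4 calcium response.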 The assay is classed as functional.

Assay [13] concerns BJ. The experiment in a line: BJ-TERT-LT-ST fibroblast viability loss – cell-based, RAS-independent, luminescence, dose response (AID 1935).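 Note: BJ fibroblasts immortalized with TERT plus LT and ST oncogenes.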 It counts as functional, Homo sapiens. The settings on record: Homo sapiens, BJ.

The source made the active and inactive calls.

Sequence of Dual specificity protein kinase CLK1 (P49759 whole entry): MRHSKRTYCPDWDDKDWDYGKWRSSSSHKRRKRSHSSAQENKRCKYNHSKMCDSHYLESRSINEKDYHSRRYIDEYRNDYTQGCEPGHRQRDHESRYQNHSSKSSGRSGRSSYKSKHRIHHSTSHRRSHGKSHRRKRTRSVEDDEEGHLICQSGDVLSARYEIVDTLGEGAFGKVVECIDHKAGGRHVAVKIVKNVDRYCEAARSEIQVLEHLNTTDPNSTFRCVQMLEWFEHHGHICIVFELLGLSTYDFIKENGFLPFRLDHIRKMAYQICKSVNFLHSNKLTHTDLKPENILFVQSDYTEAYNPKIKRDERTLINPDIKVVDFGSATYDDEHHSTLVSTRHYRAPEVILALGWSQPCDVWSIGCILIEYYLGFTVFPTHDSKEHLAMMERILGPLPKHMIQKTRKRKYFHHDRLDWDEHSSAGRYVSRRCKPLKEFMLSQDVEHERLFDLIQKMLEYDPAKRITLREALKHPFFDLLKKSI
Sequence of Paired box protein Pax-8 (Q06710 whole entry): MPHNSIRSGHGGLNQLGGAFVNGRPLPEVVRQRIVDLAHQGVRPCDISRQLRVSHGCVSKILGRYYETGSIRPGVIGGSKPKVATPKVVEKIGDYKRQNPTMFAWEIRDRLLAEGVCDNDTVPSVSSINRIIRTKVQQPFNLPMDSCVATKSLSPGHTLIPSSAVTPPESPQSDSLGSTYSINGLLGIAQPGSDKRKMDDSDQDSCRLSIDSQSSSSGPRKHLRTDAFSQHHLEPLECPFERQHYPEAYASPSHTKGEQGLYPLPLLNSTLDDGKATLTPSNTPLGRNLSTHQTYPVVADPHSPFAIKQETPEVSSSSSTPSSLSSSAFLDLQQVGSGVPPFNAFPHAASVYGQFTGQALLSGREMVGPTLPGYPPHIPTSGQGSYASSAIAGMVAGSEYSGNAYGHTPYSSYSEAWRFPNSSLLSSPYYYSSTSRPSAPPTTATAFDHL

The AC50 is the midpoint of the concentration-response curve, whichever way the signal moves. As for `Cc1c(-c2ccnc(NCc3cccnc3)n2)sc(=O)n1C`, the AC50 is 15.1 µM (active) in [1] and 0.116 µM (active) in assay [2].
For orientation: IC50 means the concentration at which inhibition is half-maximal. Broadly, the EC50 is the concentration giving half of the maximal effect. As a reminder, the CC50 is the concentration giving 50% cytotoxicity. Turning to `Cc1cc(C)c2nc(C)cc(N/N=C/c3ccc(O)cc3)c2c1`, the concentration at half-maximal activity (AC50) on Paired box protein Pax-8 was 9.08 µM (active); in assay [3] it was 0.939 µM (active); in assay [10], 50.5 µM (active). Also, the IC50 in [4] is 18.2 µM (active); in assay [9] it was 18.1 µM (active). Moreover, the EC50 in the assay with BJ [5] is 0.555 µM (active); in assay [6], 5.11 µM (inconclusive); with BJ [8], 2.56 µM (inconclusive); in the assay on BJ [11] it was 5.87 µM (active); in [12], 5.96 µM (active); in the assay on BJ [13] it was 2.78 µM (inconclusive). For the same compound, the cytotoxic concentration (CC50) in assay [7] was 13.3 µM (active).

These data come from ChEMBL document CHEMBL1201862, “PubChem BioAssay data set” (2004).
